Reference: patent US5250537A, “5,6,7,8,9,10-hexahydro-7 ,10-iminocyclohept[b]indole,-6,7,8,9,10-hexahydro-7,11-imino-5H-cyclooct[ b]indole and substituted derivatives” (Scios Nova Inc., priority 1992, dated 1993)

These compounds were tested against T1, serotonin 5-HT2 receptors (Rattus norvegicus, UniProt P14842) (assay: In Vitro Serotonin (5-HT2) Receptor Binding, [3H]ketanserin). Settings: […], read-out: Serotonin 5-HT2 [3H]ketanserin, value @ 1 μM.
T1 construct: Rat cortical synaptosomal membranes were prepared on the day of assay; from tissue; host or cells: rat frontal cortex synaptosomal membranes
Description: The potency of compounds to inhibit the specific binding of [^3 H]ketanserin (84.2 Ci/mM) to serotonin 5-HT2 receptors was determined as detailed previously [J. E. Leysen, C. J. E. Niemegers, J. M. Van Neuten and P. M. Laduron, Mol. Pharmacol., 21, 301-314 (1982)]. Rat cortical synaptosomal membranes were prepared on the day of assay. Animals were sacrified by decapitation, the frontal cortex was removed and homogenized in 10 volumes (w/v) of ice-cold 0.32M sucrose using a motor driven teflon pestle fitted to a glass tube. The synaptosomal pellet was suspended in 50 mM Tris HCl (pH 7.6 at 25° C.) to a concentration of 7.5 mg original wet weight/mL. For the binding reaction, 400 μL of this tissue suspension was added to polypropylene tubes containing 50 mM Tris HCl and [^3 H]ketanserin (final concentration of 1 nM) in a final assay volume of 0.5 mL. Following a 15 minute incubation at 37° C., the binding reaction was terminated by rapid vacuum filtration over Whatman GF/B filters (presoaked in 0.1% PEI) followed by 3×4 mL washes with ice cold 50 mM Tris HCl. Nonspecific binding was assessed in the presence of 10 μM methysergide. All incubations were performed in triplicate. IC50 values were determined using log logit analysis.

T1 sequence (P14842 whole entry): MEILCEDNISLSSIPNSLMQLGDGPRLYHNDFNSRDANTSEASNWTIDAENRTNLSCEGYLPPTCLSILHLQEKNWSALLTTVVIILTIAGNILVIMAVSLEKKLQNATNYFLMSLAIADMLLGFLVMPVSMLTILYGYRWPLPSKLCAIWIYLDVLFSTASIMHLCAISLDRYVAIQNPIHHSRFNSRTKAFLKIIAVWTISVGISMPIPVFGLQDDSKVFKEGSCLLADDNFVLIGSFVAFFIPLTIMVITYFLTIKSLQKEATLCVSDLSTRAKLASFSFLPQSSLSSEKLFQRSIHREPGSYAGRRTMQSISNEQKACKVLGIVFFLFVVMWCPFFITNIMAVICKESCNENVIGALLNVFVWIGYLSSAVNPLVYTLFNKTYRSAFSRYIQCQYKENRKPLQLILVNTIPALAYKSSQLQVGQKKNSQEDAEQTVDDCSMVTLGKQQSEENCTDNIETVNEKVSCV

Row | SMILES | inhibition at 1 µM [%]
1 | Fc1ccc2[nH]c3c(c2c1)C1CCC(C3)N1CCCN1Cc2ccccc2C1 (stereo not shown) [7 F H (CH2)3 2-isoindolinyl 2] | 72.2
2 | c1ccc2c(c1)CN(CCN1C3CCC1c1c([nH]c4ccccc14)C3)C2 (stereo not shown) [7 H H (CH2)2 2-isoindolinyl 2] | 55.1
3 | CN(CCc1ccc(Cl)c(Cl)c1)CCN1C2CCC1c1c([nH]c3ccccc13)C2 (stereo not shown) [9 H H (CH2)2 N(CH3)CH2 CH2-3,4-Cl2 Ph 2] | 34.7

Same assay, conditions: rat cortical membranes; 1 nM [3H]ketanserin

Row | SMILES | Ki [nM]
4 | Clc1ccc(OCCN2C3CCC2c2c([nH]c4ccccc24)C3)cc1 (stereo not shown) [1 H H (CH2)2 O-4-ClPh 2] | 377
5 | c1ccc(OCCN2C3CCC2c2c([nH]c4ccccc24)C3)cc1 (stereo not shown) [1 H H (CH2)2 OPh 2] | 20
6 | O=C(CCCN1C2CCC1c1c([nH]c3ccccc13)C2)c1ccc(F)cc1 (stereo not shown) [1 H H (CH2)3 CO 4-FPh 2] | 0.82
7 | Fc1ccc(OCCCN2C3CCC2c2c([nH]c4ccccc24)C3)cc1 (stereo not shown) [1 H H (CH2)3 O-4-FPh 2] | 11.4
8 | c1ccc(OCCCN2C3CCC2c2c([nH]c4ccccc24)C3)cc1 (stereo not shown) [1 H H (CH2)3 OPh 2] | 22.9
9 | c1ccc(CCCN2C3CCC2c2c([nH]c4ccccc24)C3)cc1 (stereo not shown) [1 H H (CH2)3 Ph 2] | 106
10 | Fc1ccc(CCCCN2C3CCC2c2c([nH]c4ccccc24)C3)cc1 (stereo not shown) [1 H H (CH2)4 4-FPh 2] | 22.1
11 | c1ccc(OCCCCN2C3CCC2c2c([nH]c4ccccc24)C3)cc1 (stereo not shown) [1 H H (CH2)4 OPh 2] | 48
12 | c1ccc(CCCCN2C3CCC2c2c([nH]c4ccccc24)C3)cc1 (stereo not shown) [1 H H (CH2)4 Ph 2] | 56.5
13 | c1ccc(CCCCCN2C3CCC2c2c([nH]c4ccccc24)C3)cc1 (stereo not shown) [1 H H (CH2)5 Ph 2] | 42.5
14 | O=C(CCCN1C2CCC1c1c(n(-c3ccccc3)c3ccccc13)C2)c1ccc(F)cc1 (stereo not shown) [2 H Ph (CH2)3 CO 4-FPh 2] | 814
15 | O=C(CCCN1C2CCC1c1c([nH]c3ccc(F)cc13)C2)c1ccc(F)cc1 (stereo not shown) [4 F H (CH2)3 CO 4-FPh 2] | 2.07
16 | Fc1ccc2[nH]c3c(c2c1)C1CCC(C3)N1CCCCc1ccccc1 (stereo not shown) [4 F H (CH2)4 Ph 2] | 74
17 | c1ccc(CCCCN2C3CCC2c2c(n(Cc4ccccc4)c4ccccc24)C3)cc1 (stereo not shown) [5 H Bn (CH2)4 Ph 2] | 506

The compounds below were run against T2, sigma receptor ([3H](+)-3-PPP site) (Cavia porcellus, UniProt Q60492) (assay: In Vitro Sigma Receptor Binding, [3H](+)-3-PPP). Settings: guinea pig brain; 45 minutes at 25° C.; read-out: Sigma [3H](+)-3-PPP binding IC50.
T2 construct: frozen guinea pig brains; tissue PelFreez Biologicals, Rogers, AK; host or cells: guinea pig brain membranes
Parameters: species or system guinea pig
Description: (§1) For both assays frozen guinea pig brains (PelFreez Biologicals, Rogers, AK) were thawed and homogenized in 10 volumes (w/v) of ice cold 0.32M sucrose using 10 strokes of a motor-drivenglass-fitted teflon pestle adjusted to 600 rpm. The homogenate was centrifuged (4° C.) at 900× g for 10 minutes and the resultant supernatant collected and centrifuged at 22,000×g for 20 minutes. The pellet obtained from the centrifugation was resuspended in 10 volumes of 50 mM Tris HCl (pH 7.4, 25° C.) and incubated for 30 minutes at 37° C. Following the preincubation, the homogenate was centrifuted at 22,000×g for 20 minutes and the final pellet was resuspended in buffer to a protein concentration of 0.5-1.0 mg/mL for use in the assay.
(§2) Binding reactions were initiated by the addition of tissue (800 μL) to tubes containing assay buffer, the radioligand (final concentration 1-3 nM) and the compound of interest. Haloperidol (10 μM) and (+)-3-PPP (10 μM) were used to determine the levels of […] [^3 H]DTG and [^3 H](+)PPP binding, respectively. Final assay volume was 1 mL. Reactions were allowed to proceed for 45 minutes at 25° C. and terminated by rapid filtration over Whatman GF/B filters which were washed 3 times with 5 mL of cold buffer. Radioactivity trapped on the filters was determined using routine methods. […] All assays were performed using triplicate determinations. For comparison purposes, IC50 values are reported rather than Ki values.

T2 sequence (Q60492 whole entry): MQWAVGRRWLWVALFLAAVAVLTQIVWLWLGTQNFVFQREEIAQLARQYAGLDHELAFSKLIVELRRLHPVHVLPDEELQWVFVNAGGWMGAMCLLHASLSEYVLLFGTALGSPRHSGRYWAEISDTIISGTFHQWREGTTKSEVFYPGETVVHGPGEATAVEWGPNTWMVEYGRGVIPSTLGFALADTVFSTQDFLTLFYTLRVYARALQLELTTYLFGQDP

Row | SMILES | IC50 [nM]
18 | CC(CCc1ccccc1)N1C2CCC1c1c([nH]c3ccccc13)C2 (single isomer, unassigned) [1 (high Rf) H H CH(CH3)(CH2)2 Ph 2] | 1500
19 | Clc1ccc(OCCN2C3CCC2c2c([nH]c4ccccc24)C3)cc1 (stereo not shown) [1 H H (CH2)2 O-4-ClPh 2] | 5980 ± 3510
20 | c1ccc(OCCN2C3CCC2c2c([nH]c4ccccc24)C3)cc1 (stereo not shown) [1 H H (CH2)2 OPh 2] | 534 ± 57
21 | c1ccc(OCCCN2C3CCC2c2c([nH]c4ccccc24)C3)cc1 (stereo not shown) [1 H H (CH2)3 OPh 2] | 262 ± 19
22 | O=C(CCCCN1C2CCC1c1c([nH]c3ccccc13)C2)c1ccc(F)cc1 (stereo not shown) [1 H H (CH2)4 CO 4-FPh 2] | 224
23 | c1ccc(OCCCCN2C3CCC2c2c([nH]c4ccccc24)C3)cc1 (stereo not shown) [1 H H (CH2)4 OPh 2] | 205
24 | c1ccc(CCCCCN2C3CCC2c2c([nH]c4ccccc24)C3)cc1 (stereo not shown) [1 H H (CH2)5 Ph 2] | 348 ± 70
25 | O=C(CCCN1C2CCC1c1c(n(-c3ccccc3)c3ccccc13)C2)c1ccc(F)cc1 (stereo not shown) [2 H Ph (CH2)3 CO 4-FPh 2] | 510
26 | O=C(CCCN1C2CCC1c1c([nH]c3ccc(F)cc13)C2)c1ccc(F)cc1 (stereo not shown) [4 F H (CH2)3 CO 4-FPh 2] | 408
27 | c1ccc(CCCCN2C3CCC2c2c(n(Cc4ccccc4)c4ccccc24)C3)cc1 (stereo not shown) [5 H Bn (CH2)4 Ph 2] | 396 ± 92

These compounds were tested against sigma receptor ([3H]DTG site) (assay: In Vitro Sigma Receptor Binding, [3H]DTG). Settings: guinea pig brain; 45 minutes at 25° C.
Description: as §1, §2

Row | SMILES | IC50 [nM]
28 | CC(CCc1ccccc1)N1C2CCC1c1c([nH]c3ccccc13)C2 (single isomer, unassigned) [1 (high Rf) H H CH(CH3)(CH2)2 Ph 2] | 23
29 | Clc1ccc(OCCN2C3CCC2c2c([nH]c4ccccc24)C3)cc1 (stereo not shown) [1 H H (CH2)2 O-4-ClPh 2] | 268 ± 38
30 | c1ccc(OCCN2C3CCC2c2c([nH]c4ccccc24)C3)cc1 (stereo not shown) [1 H H (CH2)2 OPh 2] | 110 ± 14
31 | c1ccc(OCCCN2C3CCC2c2c([nH]c4ccccc24)C3)cc1 (stereo not shown) [1 H H (CH2)3 OPh 2] | 132 ± 16
32 | O=C(CCCCN1C2CCC1c1c([nH]c3ccccc13)C2)c1ccc(F)cc1 (stereo not shown) [1 H H (CH2)4 CO 4-FPh 2] | 131
33 | c1ccc(OCCCCN2C3CCC2c2c([nH]c4ccccc24)C3)cc1 (stereo not shown) [1 H H (CH2)4 OPh 2] | 88 ± 15
34 | c1ccc(CCCCCN2C3CCC2c2c([nH]c4ccccc24)C3)cc1 (stereo not shown) [1 H H (CH2)5 Ph 2] | 107 ± 59
35 | O=C(CCCN1C2CCC1c1c(n(-c3ccccc3)c3ccccc13)C2)c1ccc(F)cc1 (stereo not shown) [2 H Ph (CH2)3 CO 4-FPh 2] | 528
36 | O=C(CCCN1C2CCC1c1c([nH]c3ccc(F)cc13)C2)c1ccc(F)cc1 (stereo not shown) [4 F H (CH2)3 CO 4-FPh 2] | 55
37 | c1ccc(CCCCN2C3CCC2c2c(n(Cc4ccccc4)c4ccccc24)C3)cc1 (stereo not shown) [5 H Bn (CH2)4 Ph 2] | 267 ± 87

These compounds were tested against T3, dopamine (D-2) receptors (Rattus norvegicus, UniProt P61169) (assay: In Vitro Dopamine (D-2) Receptor Binding, [3H]sulpiride). Settings: Dopamine D-2 [3H]sulpiride Ki, rat corpus striatum; 3 nM [3H]sulpiride.
T3 construct: the corpus striatum was dissected and homogenized; from tissue; host or cells: rat corpus striatum membranes
Description: On the day of assay, rats were sacrificed by decapitation, the corpus striatum was dissected and homogenized in 20 volumes of ice-cold 50 mM Tris HCl (pH 7.5, 25° C.). The homogenate was centrifuged (4° C.) at 48,000×g for 10 minutes and the resulting pellet was resuspended in 20 volumes of fresh buffer and recentrifuged. […] A portion of the suspension (800 μL) was added in triplicate to tubes containing 3 nM [^3 H]sulpiride and the test compound. The final assay volume was 1 mL; haloperidol (10 μM) was used to determine non-specific binding. Following a 60 minute incubation at 25° C., the reactions were terminated by rapid filtration over Whatman GF/B filters which had been pretreated in a solution of 0.3% (w/v) of aqueous polyethylenimine. Filters were washed three times using 5 mL of ice-cold buffer and processed using standard procedures to determine radioactivity. IC50 values were obtained from concentration-response curves in which a number of concentrations of test compound were examined. Ki values were determined using the Cheng-Prusoff equation.

T3 sequence (P61169 whole entry): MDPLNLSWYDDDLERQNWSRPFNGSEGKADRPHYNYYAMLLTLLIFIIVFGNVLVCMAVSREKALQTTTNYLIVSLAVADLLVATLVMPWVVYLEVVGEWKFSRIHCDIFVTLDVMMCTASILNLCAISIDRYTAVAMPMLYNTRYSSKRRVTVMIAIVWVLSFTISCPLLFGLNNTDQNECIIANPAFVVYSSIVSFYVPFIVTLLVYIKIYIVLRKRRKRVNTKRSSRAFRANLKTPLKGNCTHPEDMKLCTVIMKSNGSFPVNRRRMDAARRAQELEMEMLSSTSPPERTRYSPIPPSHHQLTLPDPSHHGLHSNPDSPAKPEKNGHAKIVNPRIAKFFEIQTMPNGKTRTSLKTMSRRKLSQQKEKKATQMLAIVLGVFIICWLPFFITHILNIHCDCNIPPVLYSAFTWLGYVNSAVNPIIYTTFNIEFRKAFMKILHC

Row | SMILES | Ki [nM]
38 | O=C(CCCCN1C2CCC1c1c([nH]c3ccccc13)C2)c1ccc(F)cc1 (stereo not shown) [1 H H (CH2)4 CO 4-FPh 2] | 3.5
39 | c1ccc(CCCCN2C3CCC2c2c([nH]c4ccccc24)C3)cc1 (stereo not shown) [1 H H (CH2)4 Ph 2] | 720

Same assay, conditions: rat corpus striatum; 3 nM [3H]sulpiride; read-out: Dopamine D-2 [3H]sulpiride Ki

Row | SMILES | Ki [nM]
40 | CC(CCc1ccccc1)N1C2CCC1c1c([nH]c3ccccc13)C2 (single isomer, unassigned) [1 (high Rf) H H CH(CH3)(CH2)2 Ph 2] | 1110
41 | CCCN1C2CCC1c1c([nH]c3ccccc13)C2 (stereo not shown) [1 H H (CH2)2 CH3 2] | 14400 ± 4400
42 | Clc1ccc(OCCN2C3CCC2c2c([nH]c4ccccc24)C3)cc1 (stereo not shown) [1 H H (CH2)2 O-4-ClPh 2] | 530
43 | c1ccc(OCCN2C3CCC2c2c([nH]c4ccccc24)C3)cc1 (stereo not shown) [1 H H (CH2)2 OPh 2] | 2600
44 | O=C(CCCN1C2CCC1c1c([nH]c3ccccc13)C2)c1ccc(F)cc1 (stereo not shown) [1 H H (CH2)3 CO 4-FPh 2] | 280
45 | c1ccc(OCCCN2C3CCC2c2c([nH]c4ccccc24)C3)cc1 (stereo not shown) [1 H H (CH2)3 OPh 2] | 1270 ± 260
46 | c1ccc(CCCN2C3CCC2c2c([nH]c4ccccc24)C3)cc1 (stereo not shown) [1 H H (CH2)3 Ph 2] | 2600
47 | c1ccc(OCCCCN2C3CCC2c2c([nH]c4ccccc24)C3)cc1 (stereo not shown) [1 H H (CH2)4 OPh 2] | 100
48 | c1ccc(CCCCCN2C3CCC2c2c([nH]c4ccccc24)C3)cc1 (stereo not shown) [1 H H (CH2)5 Ph 2] | 680 ± 230
49 | O=C(CCCN1C2CCC1c1c(n(-c3ccccc3)c3ccccc13)C2)c1ccc(F)cc1 (stereo not shown) [2 H Ph (CH2)3 CO 4-FPh 2] | 840
50 | c1ccc(CCCCN2C3CCC2c2c(n(Cc4ccccc4)c4ccccc24)C3)cc1 (stereo not shown) [5 H Bn (CH2)4 Ph 2] | 1830
51 | Fc1ccc2[nH]c3c(c2c1)C1CCC(C3)N1CCCN1Cc2ccccc2C1 (stereo not shown) [7 F H (CH2)3 2-isoindolinyl 2] | 1780 ± 630
52 | c1ccc2c(c1)CN(CCN1C3CCC1c1c([nH]c4ccccc14)C3)C2 (stereo not shown) [7 H H (CH2)2 2-isoindolinyl 2] | 2200 ± 180
53 | CN(CCc1ccc(Cl)c(Cl)c1)CCN1C2CCC1c1c([nH]c3ccccc13)C2 (stereo not shown) [9 H H (CH2)2 N(CH3)CH2 CH2-3,4-Cl2 Ph 2] | 2530 ± 160

Same assay, conditions: read-out: Dopamine D-2 [3H]sulpiride Ki

Row | SMILES | Ki [nM]
54 | Fc1ccc(CCCCN2C3CCC2c2c([nH]c4ccccc24)C3)cc1 (stereo not shown) [1 H H (CH2)4 4-FPh 2] | 1160
55 | Fc1ccc2[nH]c3c(c2c1)C1CCC(C3)N1CCCCc1ccccc1 (stereo not shown) [4 F H (CH2)4 Ph 2] | 770
